Data published in patent publication US20250332113A1, “ADHESIVE PARTICLES FOR ACTIVE DELIVERY” (THE TRUSTEES OF THE UNIVERSITY OF PENNSYLVANIA, priority 2022, published 2025).

Experiment: Release profile of fluorescent molecules from PEG-PLGA double-emulsion hairy microparticles
Type: physicochemical
Details: 0.1 M PBS buffer pH 7.4, 37° C., fluorescence in supernatant
From the text: FIGS. 2A-2B. Simulated drug releasing profile from PEG-PLGA double emulsions-based hairy microparticles using two different fluorescent molecules. (FIG. 2A) Loaded Alexa Fluor® 647 (1025.2 g/mol) and (FIG. 2B) GFP (27 kDa) were released depending on the time and detected in supernatant.
To test drug encapsulating and releasing properties, we use two different sizes of fluorescent molecules (Alexa Fluor® 647, 1025.2 g/mol and GFP, 27 kDa). We load these molecules into most inner phase and generate double emulsions through two-step sequential emulsification. After fully drying of DCM, hairy microparticles are collected and washed 3 times by centrifugation at 3000 rcf for 1 min with deionized water. To determine the release profile, we place a sample in 0.1 M PBS buffer (pH=7.4, 5 ml total) at 37° C. and monitor the release of the fluorescent molecules. The fluorescent intensity in supernatant are measured using a BioTek plate reader. FIGS. 2A-2B show the release profile of both Alexa Fluor 647 and GFP. Based on the fluorescent intensity of end point, about 22-26% of Alexa Fluor 647 and 19-35% of GFP are released (compared to the amount injected into the emulsions) from microcapsules.

released from microcapsules, compared to the amount injected into the emulsions, based on fluorescent intensity of end point: 22-26%
Substance: Alexa Fluor 647
